Columns and labels:
[1] = in water; cited from earlier work
db/db mice = experiment: In vivo assay in db/db mice (blood glucose, body weight, food consumption)
[2] = high dose (300 nmoles/kg) s.c., Days 2 and 3

SMILES	CMC [1] [mM]	db/db mice - Mean Blood Glucose (db/db mice; 250 nmole/kg s.c., 0 hr) [mg/dL]	db/db mice - Mean Blood Glucose (db/db mice; 250 nmole/kg s.c., 10 hr) [mg/dL]	db/db mice - Mean Blood Glucose (db/db mice; 250 nmole/kg s.c., 24 hr) [mg/dL]	db/db mice - Mean Blood Glucose (db/db mice; 250 nmole/kg s.c., 48 hr) [mg/dL]	also measured
CCCCCCCCCCCCCCO[C@@H]1O[C@H](CO)[C@@H](O[C@@H]2O[C@@H](CO)[C@H](O)[C@@H](O)[C@@H]2O)[C@H](O)[C@H]1O (stereo in doubt) [Tetradecyl maltoside]	0.01					
CCCCCCCCCCCCCO[C@@H]1O[C@H](CO)[C@@H](OC2OC(CO)C(O)C(O)C2O)[C@H](O)[C@H]1O (stereo in doubt) [Tridecyl maltoside]	0.03					
CCCCCCCCCCO[C@@H]1O[C@H](CO)[C@@H](O[C@H]2O[C@H](CO)[C@@H](O)[C@H](O)[C@H]2O)[C@H](O)[C@H]1O [Decyl maltoside]	1.8					
CCCCCCCCO[C@@H]1O[C@H](C(=O)NCCCC[C@H](NC(=O)[C@@H](NC(=O)[C@H](Cc2ccccc2)NC(=O)[C@H](CCC(=O)O)NC(=O)[C@@H]2CCCCNC(=O)CC[C@H](NC(=O)[C@H](CC(=O)O)NC(=O)[C@H](CC(C)C)NC(=O)[C@H](Cc3ccc(O)cc3)NC(=O)[C@H](CCCCN)NC(=O)[C@H](CO)NC(=O)[C@H](Cc3ccc(O)cc3)NC(=O)[C@H](CC(=O)O)NC(=O)[C@H](CO)NC(=O)[C@@H](NC(=O)[C@H](Cc3ccccc3)NC(=O)[C@@H](NC(=O)CNC(=O)[C@H](CCC(N)=O)NC(=O)C(C)(C)NC(=O)[C@@H](N)Cc3c[nH]cn3)[C@@H](C)O)[C@@H](C)O)C(=O)N[C@@H](CCC(N)=O)C(=O)N[C@@H](C)C(=O)N[C@@H](C)C(=O)N2)[C@@H](C)CC)C(=O)N[C@@H](Cc2c[nH]c3ccccc23)C(=O)N[C@@H](CC(C)C)C(=O)N[C@@H](CC(C)C)C(=O)N[C@@H](CCC(N)=O)C(=O)N[C@H](C(N)=O)[C@@H](C)O)[C@@H](O)[C@H](O)[C@H]1O [EU-A992]		405	104	112	130	
CCCCCCCCCCCCCCO[C@@H]1O[C@H](C(=O)NCCCC[C@H](NC(=O)[C@@H](NC(=O)[C@H](Cc2ccccc2)NC(=O)[C@H](CCC(=O)O)NC(=O)[C@@H]2CCCCNC(=O)CC[C@H](NC(=O)[C@H](CC(=O)O)NC(=O)[C@H](CC(C)C)NC(=O)[C@H](Cc3ccc(O)cc3)NC(=O)[C@H](CCCCN)NC(=O)[C@H](CO)NC(=O)[C@H](Cc3ccc(O)cc3)NC(=O)[C@H](CC(=O)O)NC(=O)[C@H](CO)NC(=O)[C@@H](NC(=O)[C@H](Cc3ccccc3)NC(=O)[C@@H](NC(=O)CNC(=O)[C@H](CCC(N)=O)NC(=O)C(C)(C)NC(=O)[C@@H](N)Cc3c[nH]cn3)[C@@H](C)O)[C@@H](C)O)C(=O)N[C@@H](CCC(N)=O)C(=O)N[C@@H](C)C(=O)N[C@@H](C)C(=O)N2)[C@@H](C)CC)C(=O)N[C@@H](Cc2c[nH]c3ccccc23)C(=O)N[C@@H](CC(C)C)C(=O)N[C@@H](CC(C)C)C(=O)N[C@@H](CCC(N)=O)C(=O)N[C@H](C(N)=O)[C@@H](C)O)[C@@H](O)[C@H](O)[C@H]1O [EU-A994, His1-Aib2-Gln3-Gly4-Thr5-Phe6-Thr7-Ser8-Asp9-Tyr10-Ser11-Lys12-Tyr13-Leu14-Asp15-Glu*16-Gln17-Ala18-Ala19-Lys*20-Glu21-Phe22-Ile23-Lys(N-omega(1-tetradecylbeta-D-glucuronyl))24-Trp25-Leu26-Leu27-Gln28-Thr29-NH2]						db/db mice - Mean Blood Glucose (db/db mice; 300 nmole/kg s.c., 0 hr): 554 mg/dL; db/db mice - Mean Blood Glucose (db/db mice; 300 nmole/kg s.c., 10 hr): 242 mg/dL; db/db mice - Mean Blood Glucose (db/db mice; 300 nmole/kg s.c., 24 hr): 209 mg/dL; db/db mice - Mean Blood Glucose (db/db mice; 300 nmole/kg s.c., 48 hr): 385 mg/dL; body weight changes against vehicle (db/db mice; [2]): Significant body weight changes
CCCCCCCCCCCCCCCCCCO[C@@H]1O[C@H](CO[C@H]2O[C@H](C(=O)NCCCC[C@H](NC(=O)[C@@H](NC(=O)[C@H](Cc3ccccc3)NC(=O)[C@H](CCC(=O)O)NC(=O)[C@@H]3CCCCNC(=O)CC[C@H](NC(=O)[C@H](CC(=O)O)NC(=O)[C@H](CC(C)C)NC(=O)[C@H](Cc4ccc(O)cc4)NC(=O)[C@H](CCCCN)NC(=O)[C@H](CO)NC(=O)[C@H](Cc4ccc(O)cc4)NC(=O)[C@H](CC(=O)O)NC(=O)[C@H](CO)NC(=O)[C@@H](NC(=O)[C@H](Cc4ccccc4)NC(=O)[C@@H](NC(=O)CNC(=O)[C@H](CCC(N)=O)NC(=O)C(C)(C)NC(=O)[C@@H](N)Cc4c[nH]cn4)[C@@H](C)O)[C@@H](C)O)C(=O)N[C@@H](CCC(N)=O)C(=O)N[C@@H](C)C(=O)N[C@@H](C)C(=O)N3)[C@@H](C)CC)C(=O)N[C@@H](Cc3c[nH]c4ccccc34)C(=O)N[C@@H](CC(C)C)C(=O)N[C@@H](CC(C)C)C(=O)N[C@@H](CCC(N)=O)C(=O)N[C@H](C(N)=O)[C@@H](C)O)[C@H](O)[C@H](O)[C@H]2O)[C@@H](O)[C@H](O)[C@H]1O [EU-A1026, His1-Aib2-Gln3-Gly4-Thr5-Phe6-Thr7-Ser8-Asp9-Tyr10-Ser11-Lys12-Tyr13-Leu14-Asp15-Glu*16-Gln17 Ala18-Ala19-Lys*20-Glu21-Phe22-Ile23-Lys (N-omega (1-octadecyl beta-D-melibiouronyl)) 24-Trp25-Leu26-Leu27-Gln28-Thr29-NH2]						db/db mice - Mean Blood Glucose (db/db mice; 300 nmole/kg s.c., 0 hr): 531 mg/dL; db/db mice - Mean Blood Glucose (db/db mice; 300 nmole/kg s.c., 10 hr): 399 mg/dL; db/db mice - Mean Blood Glucose (db/db mice; 300 nmole/kg s.c., 24 hr): 438 mg/dL; db/db mice - Mean Blood Glucose (db/db mice; 300 nmole/kg s.c., 48 hr): 505 mg/dL; body weight changes against vehicle (db/db mice; [2]): Significant body weight changes; glucose levels versus liraglutide (db/db mice; low dose (100 nmoles/kg) s.c., 10 hours): significantly different from liraglutide; body weight changes against vehicle (db/db mice; low dose (100 nmoles/kg) s.c., Days 3 and 4): Significant body weight changes
CCCCCCCCCCO[C@@H]1O[C@H](C(=O)NCCCC[C@H](NC(=O)[C@@H](NC(=O)[C@H](Cc2ccccc2)NC(=O)[C@H](CCC(=O)O)NC(=O)[C@@H]2CCCCNC(=O)CC[C@H](NC(=O)[C@H](CC(=O)O)NC(=O)[C@H](CC(C)C)NC(=O)[C@H](Cc3ccc(O)cc3)NC(=O)[C@H](CCCCN)NC(=O)[C@H](CO)NC(=O)[C@H](Cc3ccc(O)cc3)NC(=O)[C@H](CC(=O)O)NC(=O)[C@H](CO)NC(=O)[C@@H](NC(=O)[C@H](Cc3ccccc3)NC(=O)[C@@H](NC(=O)CNC(=O)[C@H](CCC(N)=O)NC(=O)C(C)(C)NC(=O)[C@@H](N)Cc3c[nH]cn3)[C@@H](C)O)[C@@H](C)O)C(=O)N[C@@H](CCC(N)=O)C(=O)N[C@@H](C)C(=O)N[C@@H](C)C(=O)N2)[C@@H](C)CC)C(=O)N[C@@H](Cc2c[nH]c3ccccc23)C(=O)N[C@@H](CC(C)C)C(=O)N[C@@H](CC(C)C)C(=O)N[C@@H](CCC(N)=O)C(=O)N[C@H](C(N)=O)[C@@H](C)O)[C@@H](O)[C@H](O)[C@H]1O [EU-A1167]		379	171	117	113	
CCCCCCCCCCCO[C@@H]1O[C@H](C(=O)NCCCC[C@H](NC(=O)[C@@H](NC(=O)[C@H](Cc2ccccc2)NC(=O)[C@H](CCC(=O)O)NC(=O)[C@@H]2CCCCNC(=O)CC[C@H](NC(=O)[C@H](CC(=O)O)NC(=O)[C@H](CC(C)C)NC(=O)[C@H](Cc3ccc(O)cc3)NC(=O)[C@H](CCCCN)NC(=O)[C@H](CO)NC(=O)[C@H](Cc3ccc(O)cc3)NC(=O)[C@H](CC(=O)O)NC(=O)[C@H](CO)NC(=O)[C@@H](NC(=O)[C@H](Cc3ccccc3)NC(=O)[C@@H](NC(=O)CNC(=O)[C@H](CCC(N)=O)NC(=O)C(C)(C)NC(=O)[C@@H](N)Cc3c[nH]cn3)[C@@H](C)O)[C@@H](C)O)C(=O)N[C@@H](CCC(N)=O)C(=O)N[C@@H](C)C(=O)N[C@@H](C)C(=O)N2)[C@@H](C)CC)C(=O)N[C@@H](Cc2c[nH]c3ccccc23)C(=O)N[C@@H](CC(C)C)C(=O)N[C@@H](CC(C)C)C(=O)N[C@@H](CCC(N)=O)C(=O)N[C@H](C(N)=O)[C@@H](C)O)[C@@H](O)[C@H](O)[C@H]1O [EU-A1168]		380	133	169	164	
